Assays:
GAPDH = molecular target: T1, GAPDH (Mus musculus, UniProt P16858); test: S-nitrosylation of GAPDH after TBI (SNO-resin assisted capture, western blot); type: in vivo
T1 construct: from tissue; host or cells: cerebral cortex of C57BL/6J mice after TBI
Procedure: Drug preparation and administration: CGP3466B (Sigma-Aldrich, SML1941) was dissolved in DMSO and then diluted in sterile saline. The final working stock was 0.0014 mg/ml for administering the 0.014 mg/kg dose. Intraperitoneal administration of CGP3466B was initiated 15 min or 24 h after injury, and tissues were harvested 6 h (for SNO-GAPDH, SNO-SIRT1 measurement) or 2 weeks (for ac-tau measurement) later, respectively. Salsalate (AdipoGen, AG-CR1-3574) was dissolved in DMSO and then diluted in sterile PBS. The final working stocks were as follows: 2.5 mg/ml (25 mg/kg dose), 1 mg/ml (10 mg/kg dose), 0.5 mg/ml (5 mg/kg dose). Daily intraperitoneal administration of salsalate was initiated 24 hr after injury and continued throughout behavioral testing. P7C3-A20 and FK866 (Sigma-Aldrich, F8557) were first dissolved in 1 vol of DMSO, followed by addition of 4 vol of Kolliphor and vigorously vortexing. The solution was then diluted with 30 vol of filtered 5% dextrose (pH 7.0). EX527 (Selleckchem, S1541) was dissolved in 1% DMSO+30% polyethylene glycol+1% Tween 80. Daily intraperitoneal administration of P7C3-A20 was initiated 24 hr after poly-traumatic brain injury. EX527 (10 mg/kg) was administer once a day and FK866 was treated twice per day, with the first injection given at the same time as P7C3-A20 (20 mg/kg) and the second injection given 6 h later (LoCoco et al., 2017 eLife). Diflunisal was first dissolved in 1 vol of DMSO, followed by addition of 2 vol of Kolliphor and vigorously vortexing. […]
SNO-resin assisted capture (SNO-RAC): SNO-RAC was performed as described previously (Forrester, 2009). […] After two times centrifugation (20,000 g at 4° C. for 20 min), protein concentration of supernatants was determined using Coomassie protein assay (Thermo Scientific, #1856210). […] SNO-proteins were then eluted with 2× Laemmli Sample Buffer (Bio-Rad Laboratories, Inc., #1610737) with 10% beta-mercaptoethanol (Bio-Rad Laboratories, Inc., #1610710) and analyzed by SDS-PAGE and immunoblotting.

clinically-diagnosed TBI = test: Pharmacoepidemiologic cohort analysis (MarketScan Medicare Supplemental database), incidence of TBI; type: in vivo, human; conditions: vs. PS-matched aspirin cohort, Cox regression model, 6 years of follow-up
Source text: Because ac-tau has been generally reported in the brains of subjects with AD, we evaluated the relationship between salsalate or diflunisal use and incidence of clinically-diagnosed TBI or AD by analyzing 7.23 million U.S. commercially-insured individuals (MarketScan Medicare Supplemental database). We conducted two cohort analyses to evaluate the predicted association, based on individual level of longitudinal patient data and pharmacoepidemiologic methods, as previously established (Cheng et al., 2018). Thus, our two cohorts included: (1) salsalate vs. a matched aspirin population and (2) diflunisal vs. a matched aspirin population (Table 2). For each comparison, we estimated the un-stratified Kaplan-Meier curves and conducted propensity score (PS) stratified (n strata=10) log-rank tests and a Cox regression model after adjusting age, race, sex, and disease comorbidities (including diabetes, hypertension, and coronary artery disease) using a propensity score-matching method (Methods).
Study cohorts. The IBM® MarketScan® Medicare Supplemental Database is one of the first in the U.S. to profile the healthcare experience of retirees with Medicare supplemental insurance paid by employers. The MarketScan Medicare Supplemental Database provides detailed cost, use and outcomes data for healthcare services performed in both inpatient and outpatient settings. […]

p300/CBP = conditions: literature (Shirakawa et al., 2016); cited from earlier work

T1 sequence (P16858 whole entry): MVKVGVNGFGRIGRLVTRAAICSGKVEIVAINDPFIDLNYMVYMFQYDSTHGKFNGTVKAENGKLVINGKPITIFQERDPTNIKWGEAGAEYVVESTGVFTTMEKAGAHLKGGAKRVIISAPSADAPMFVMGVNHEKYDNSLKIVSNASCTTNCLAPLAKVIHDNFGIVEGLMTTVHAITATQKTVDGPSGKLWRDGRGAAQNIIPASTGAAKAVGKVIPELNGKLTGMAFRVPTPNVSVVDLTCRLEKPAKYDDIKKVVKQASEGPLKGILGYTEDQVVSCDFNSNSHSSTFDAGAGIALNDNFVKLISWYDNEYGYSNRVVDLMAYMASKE

SMILES	S-nitrosylation of GAPDH (GAPDH; CGP3466B 0.014 mg/kg IP initiated 15 min after TBI, cerebral cortex harvested 6 h later, vs. TBI+Vehicle)	S-nitrosylation of GAPDH (GAPDH; 25 mg/kg salsalate after TBI)	hazard ratio [HR], clinically-diagnosed TBI (clinically-diagnosed TBI)	inhibition of p300/CBP (p300/CBP)
C#CCN(C)CC1=Cc2ccccc2Oc2ccccc21.O=C(O)/C=C\C(=O)O [CGP3466B]	inhibits S-nitrosylation of GAPDH and Sirt1	–	–	–
O=C(Oc1ccccc1C(=O)O)c1ccccc1O [salsalate]	–	S-nitrosylation of GAPDH is not affected	0.70	known inhibitor of rodent and human p300/CBP

Reference: US20240201204A1, “Biomarker and Druggable Target of Neurodegeneration” (University Hospitals Cleveland Medical Center, priority 2020, published 2024)
